Source: PMC6515479, “An Investigation on Glucuronidation Metabolite Identification, Isozyme Contribution, and Species Differences of GL-V9 In Vitro and In Vivo” (Molecules, 2019)

Legend:
Type in all cases: in vitro ADME
Conditions in all cases: GL-V9 0.5, 1, 5 μM, 37 °C, 1 h
rUGT1A3 = target: T1, rUGT1A3 (Homo sapiens, UniProt P35503); assay: UGT phenotyping of GL-V9 glucuronidation, rUGT1A3
T1 construct: purchased Corning (Woburn, MA, USA)
T1 sequence (P35503 29-534): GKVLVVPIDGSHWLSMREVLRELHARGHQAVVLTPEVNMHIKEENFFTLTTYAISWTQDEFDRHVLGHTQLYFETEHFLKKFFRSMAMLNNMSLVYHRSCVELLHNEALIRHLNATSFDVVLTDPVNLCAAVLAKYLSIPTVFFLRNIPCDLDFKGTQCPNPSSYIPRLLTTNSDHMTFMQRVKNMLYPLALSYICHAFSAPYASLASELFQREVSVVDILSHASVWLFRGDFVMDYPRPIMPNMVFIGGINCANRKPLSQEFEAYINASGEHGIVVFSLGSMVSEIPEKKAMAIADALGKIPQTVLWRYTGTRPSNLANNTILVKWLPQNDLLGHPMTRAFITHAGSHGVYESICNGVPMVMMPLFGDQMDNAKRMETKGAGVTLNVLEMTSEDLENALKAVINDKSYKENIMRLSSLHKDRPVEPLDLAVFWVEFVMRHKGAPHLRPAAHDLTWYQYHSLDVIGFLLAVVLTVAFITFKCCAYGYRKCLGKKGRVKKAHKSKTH
Protocol: (§1) The composition of the incubation system (200 μL) contained liver microsomes of different species (0.1 mg protein/mL), 5 mM saccharolactone (D-saccharic acid 1,4-lactone monohydrate), 10 mM MgCl2, alamethicin (50 μg/mg protein), Tris-HCl buffer (50 mM, pH 7.4) and GL-V9 (1 μM). After 5 min of preincubation at 37 °C, UDPGA (5 mM) was added to initiate the phase II reaction. Control incubation samples were performed without UDPGA or without substrates (GL-V9). The reaction was terminated by addition of ice-cold methanol (three volumes) after incubation for 1 h at 37 °C. Samples were vortexed, centrifuged at 21,500× g for 10 min and then stored at 4 °C until HPLC-UV-TripleTOF analysis. To confirm that these metabolites are conjugates resulting from glucuronidation reaction, enzymatic hydrolysis of samples was processed. β-glucuronidase (100 KU, Sigma) was added and the hydrolysis was performed overnight at 37 °C. The control samples were carried out without β-glucuronidase under the same condition.
(§2) Twelve human recombinant UGT isoforms (rUGT1A1, rUGT1A3, rUGT1A4, rUGT1A6, rUGT1A7, rUGT1A8, rUGT1A9, rUGT1A10, rUGT2B4, rUGT2B7, rUGT2B15, and rUGT2B17) were employed to identify the main UGT enzyme(s) responsible for glucuronidation of GL-V9 under mixture conditions as described in Section 4.3. […]

rUGT1A4 = target: T2, rUGT1A4 (Homo sapiens, UniProt P22310); assay: UGT phenotyping of GL-V9 glucuronidation, rUGT1A4
T2 construct: purchased Corning (Woburn, MA, USA)
T2 sequence (P22310 29-534): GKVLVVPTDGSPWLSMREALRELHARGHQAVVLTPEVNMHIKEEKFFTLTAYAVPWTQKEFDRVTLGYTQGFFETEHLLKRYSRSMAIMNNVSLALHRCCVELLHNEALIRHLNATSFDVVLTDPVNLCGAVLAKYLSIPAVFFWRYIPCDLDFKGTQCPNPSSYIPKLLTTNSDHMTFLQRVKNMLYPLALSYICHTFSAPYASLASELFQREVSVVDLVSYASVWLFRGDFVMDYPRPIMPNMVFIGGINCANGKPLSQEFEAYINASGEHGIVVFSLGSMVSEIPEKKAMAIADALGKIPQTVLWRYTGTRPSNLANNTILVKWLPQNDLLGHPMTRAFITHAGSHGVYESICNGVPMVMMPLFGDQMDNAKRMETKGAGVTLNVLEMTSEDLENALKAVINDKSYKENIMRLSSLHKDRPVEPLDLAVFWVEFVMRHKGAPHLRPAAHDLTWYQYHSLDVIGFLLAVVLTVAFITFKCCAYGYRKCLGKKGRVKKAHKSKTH
Protocol: as §1, §2

rUGT2B17 = target: T3, rUGT2B17 (Homo sapiens, UniProt O75795); assay: UGT phenotyping of GL-V9 glucuronidation, rUGT2B17
T3 construct: purchased Corning (Woburn, MA, USA)
T3 sequence (O75795 24-530): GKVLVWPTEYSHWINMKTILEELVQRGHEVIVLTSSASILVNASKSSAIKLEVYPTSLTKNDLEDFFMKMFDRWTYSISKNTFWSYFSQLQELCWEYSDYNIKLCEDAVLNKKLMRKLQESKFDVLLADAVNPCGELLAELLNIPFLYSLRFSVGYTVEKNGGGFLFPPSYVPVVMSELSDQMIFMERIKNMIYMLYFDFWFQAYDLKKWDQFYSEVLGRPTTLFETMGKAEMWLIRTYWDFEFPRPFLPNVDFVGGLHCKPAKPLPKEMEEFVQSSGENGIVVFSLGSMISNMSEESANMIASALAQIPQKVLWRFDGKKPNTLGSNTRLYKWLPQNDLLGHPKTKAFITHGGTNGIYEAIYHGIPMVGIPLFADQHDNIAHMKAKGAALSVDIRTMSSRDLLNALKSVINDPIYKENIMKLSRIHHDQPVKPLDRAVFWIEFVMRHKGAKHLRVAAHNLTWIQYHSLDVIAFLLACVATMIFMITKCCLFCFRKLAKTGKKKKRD
Protocol: as §1, §2

For `COc1c(OCCCCN2CCCC2)cc(O)c2c(=O)cc(-c3ccccc3)oc12` [GL-V9], the “Metabolism rate (glucuronidation)” value (rUGT1A3) was “too low to be biologically relevant”, the “Metabolism rate (glucuronidation)” value (rUGT1A4) was “too low to be biologically relevant” and the “Catalytic activity in the production of 5-O-glucuronide GL-V9” value (rUGT2B17) was “did not show apparent catalytic activity”.
